Test results reported in patent US12303594B2, “Antimicrobial and anti-inflammatory compositions” (The Texas A&M University System, priority 2015, dated 2025).

How the values were obtained:
[1] = system: Escherichia coli strain EC J53+pmg101; assay: In vitro bacterial growth study (OD600); format: cell-based; details: 10 μg/mL or 1 μg/mL ibuprofen solution added 1:1 (v:v)
PA01 [2] = assay: Mouse model of acute P. aeruginosa pneumonia (bacterial burden, weight, clinical scores); format: in vivo, mice
PA01 [3] = assay: In vivo survival study after P. aeruginosa infection; set-up: species or system mice
Experimental: […]. […] […]. Also, the mice were weighed and assigned clinical scores, a semi-quantitative metric that rates their signs of infection from asymptomatic (0) to moribund (6), at the start of the study, at 12 hours, and at the termination of the study. […]. For this study, the mice were administered treatment on the same schedule and were observed continuously for their time of death over the course of 72 hours, by the end of which any surviving mice begin to recover. […].

[4] = Brunauer-Emmett-Teller specific surface area; format: physicochemical
Experimental: Brunauer-Emmett-Teller: Surface area (SA) was evaluated via a single-point BET method using a Monosorb® surface area analyzer (Quantrachrome Instruments; FL, USA) following 24 hour outgassing with helium at room temperature (RT) before each measurement in triplicate on a known powder mass (m). SSA was calculated using Equation 3: […]
Brunauer-Emmett-Teller (BET) specific surface area (SSA) measurements were taken. Surface area (SA) was evaluated via a single-point BET method using a Monosorb® surface area analyzer (Quantrachrome Instruments; FL, USA) following 24 hour outgassing with helium at room temperature before each measurement in triplicates. Samples masses (m) were at least 50 mg for the jet-milled powders depending on availability and 500 mg for the unprocessed samples. SSA was calculated according to the following formula: […]

[5] = Helium pycnometry true density; format: physicochemical; details: N = 3
Experimental: Helium pycnometry: True densities were measured using an MVP-D160-E multipycnometer (Quantrachrome Instruments; FL, USA) equipped with the micro cell and adapter. Measurements were conducted in triplicates. Before pressure measurements, the multipycnometer was purged with helium gas according to the manufacturer's recommendations.
True densities were measured using a MVP-D160-E multipycnometer (Quantrachrome Instruments; FL, USA). For density measurements, the micro cell and the micro cell adapter were used, and samples weighed at least 0.1 g for the jet-milled powders depending on availability and at least 0.6 g for the unprocessed powders.

PA HP3 = assay: Endpoint time-kill synergy study; details: ibuprofen with sub-MIC antimicrobial vs antimicrobial alone, 9 hours
Experimental: Afterwards, the inoculums were plated to determine their CFU/ml. Synergy from the combination was determined by a ≥2×log10 decrease in CFU/ml when compared to antimicrobial treatment alone.

[6] = 0.75 mg in syrup by mouth every 8 hours, 36 hours post-infection, vs syrup only

CC(C)Cc1ccc(C(C)C(=O)O)cc1 (centres unmarked) [ibuprofen, 2(4-isobutylphenyl)propanoic acid]
bacterial growth (OD600) [1]: slowed and/or delayed the growth | lung bacterial burden (CFU counts) (PA01 [2]; [6]): Significant reductions | spleen bacterial burden (CFU counts) (PA01 [2]; [6]): Significant reductions | weight loss after infection (PA01 [2]; 36 hour study): no significant effect | survival (PA01 [3]; 72 hours, treated mice): 92% | weight loss (PA01 [3]; day 3): less weight loss | clinical scores (PA01 [3]; days 2 and 3): significantly better clinical scores | surface area [4]: 0.357±0.005 m^2/g | SSA ([4]; N = 3): 0.36 ± 0.01 m^2/g | ρ (true density) [5]: 1.14 ± 0.00 g/mL | killing efficacy of ceftazidime and gentamicin (CFU/ml) (PA HP3): significantly increased the killing efficacy of both ceftazidime and gentamicin
